Test results reported in article doi:10.1101/2023.10.02.560523v1, “Quantitative target engagement of RIPK1 in human whole blood via the cellular thermal shift assay for potential pre-clinical and clinical applications” (biorxiv, 2023).

Biological target: T1, RIPK1 (receptor interacting serine/threonine-protein kinase 1) (Homo sapiens, UniProt Q13546)
T1 construct: endogenous untagged full-length protein in unprocessed human whole blood of healthy donors
T1 sequence (Q13546 1-671): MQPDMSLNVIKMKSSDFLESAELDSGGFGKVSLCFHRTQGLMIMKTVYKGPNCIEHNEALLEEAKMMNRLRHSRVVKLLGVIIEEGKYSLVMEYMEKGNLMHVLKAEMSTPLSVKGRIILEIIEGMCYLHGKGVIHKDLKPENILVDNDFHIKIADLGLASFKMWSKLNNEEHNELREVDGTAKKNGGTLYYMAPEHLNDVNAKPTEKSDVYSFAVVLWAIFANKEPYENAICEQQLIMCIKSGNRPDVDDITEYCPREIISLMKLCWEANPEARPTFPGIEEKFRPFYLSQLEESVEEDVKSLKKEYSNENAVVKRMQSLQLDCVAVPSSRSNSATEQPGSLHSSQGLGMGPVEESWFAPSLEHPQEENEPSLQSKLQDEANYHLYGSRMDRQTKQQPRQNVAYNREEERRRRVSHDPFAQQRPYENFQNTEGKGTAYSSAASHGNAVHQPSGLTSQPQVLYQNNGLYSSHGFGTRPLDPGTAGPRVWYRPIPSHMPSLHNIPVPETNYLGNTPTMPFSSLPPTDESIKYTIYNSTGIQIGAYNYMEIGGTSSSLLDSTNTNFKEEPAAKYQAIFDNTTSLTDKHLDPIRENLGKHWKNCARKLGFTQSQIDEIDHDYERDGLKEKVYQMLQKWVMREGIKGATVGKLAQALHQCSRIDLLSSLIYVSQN
Assay: MSD TEAR1 occupancy immunoassay, human whole blood
Format: cell-based
Conditions: 1 h at 37 °C with compound, no heating; N=1 donor; unreliable
Source text: MSD TEAR1 occupancy immunoassay, human whole blood on RIPK1 (receptor interacting serine/threonine-protein kinase 1)

EC50: 340 nM
Compound: COc1ccc(-n2c(SCC#N)nc3sc4c(c3c2=O)CCCC4)cc1 [necrostatin 5]
